# Where two headings read alike, the source gives them in different places.
# Assays:
# [1] = test system: lectin pathway (MBL) in human serum; assay: Inhibition of activity of lectin pathway (MBL) in human serum (WIESLAB Complement System MBL Pathway kit); format: biochemical; details: 1% human serum
# Procedure: The inhibition of the activity of the lectin pathway (MBL) in human serum by compounds was detected using a WIESLAB® Complement System MBL Pathway kit (SVAR, COMPLMP320). Test compounds were each serially diluted in a buffer (Diluent MP), and 1% human serum was incubated with the diluted compound solution for 15 min at room temperature. 100 μL of the mixture was added to a microplate and incubated at 37° C. for 60 min. The liquid in the wells was discarded, and the microplate was washed three times with a washing solution. A Conjugate antibody solution was added at 100 μL/well, and the resulting mixture was incubated for 30 min at 25° C. The liquid in the wells was discarded, and the microplate was washed three times with a washing solution; a substrate solution was added at 100 μL/well, and the resulting mixture was incubated for 30 min at 25° C.; the terminator was added at 50 μL/well, and the absorbance at 405 nm was detected within 30 min by using a microplate reader.
# [2] = In vivo pharmacokinetic study in SD rats; details: 1 mg/kg, clear
# Procedure: After adaptive feeding, the SPF SD rats were each subjected to a single administration of 1 mg/kg or 3 mg/kg of the compound of the present disclosure intragastrically or by tail vein bolus injection. Plasma was collected at specific time points after administration, and the concentration of the compound in plasma was detected by LC-MS/MS (AB Sciex Qtrap 4500).
# [3] = Sprague-Dawley (SD), rat, plasma, IV, not fasting
# [4] = Sprague-Dawley (SD), rat, plasma, IV, not fasting, read-out: Cmax
# [5] = Sprague-Dawley (SD), rat, plasma, PO, fasting
# [6] = Sprague-Dawley (SD), rat, plasma, PO, fasting, read-out: Cmax
"AUClast ([2]; IV, not fasting) [ng·h/mL]","Cmax ([2]; IV, not fasting) [ng/mL]","T1/2 ([2]; IV, not fasting) [h]","AUClast ([2]; PO, fasting) [ng·h/mL]","Cmax ([2]; PO, fasting) [ng/mL]","T1/2 ([2]; PO, fasting) [h]",Structure (SMILES),IC50 [1] [nM],"AUC(0-t) [2, 3] [ng·h/mL]","half-life [2, 3] [h]","Cmax [2, 4] [ng/mL]","AUC(0-t) [2, 5] [ng·h/mL]","half-life [2, 5] [h]","Cmax [2, 6] [ng/mL]"
,,,,,,"C[C@H](NC(=O)[C@@H]1C=C(c2ccc(F)cc2F)CCN1)C(=O)N[C@@H]1CCc2nc(N)ccc21 (single isomer, unassigned) [Compound L076-IS-02]",11.6,25900 ± 556,5.88 ± 0.27,22500 ± 1030,6970 ± 1210,4.29 ± 0.28,1350 ± 423
97054 ± 1914,26933 ± 1167,12.0 ± 3.72,11618 ± 919,1777 ± 98.2,12.7,"C[C@H](NC(=O)[C@H]1C[C@H](Cc2ccc(F)c(Cl)c2)CN1)C(=O)NC1CCc2nc(N)ccc21 (stereo partly drawn) [Compound L012, (2R,4S)—N-((2S)-1-((2-amino-6,7-dihydro-5H-cyclopenta[b]pyridin-5-yl)amino)-1-oxopropan-2-yl)-4-(3-chloro-4-fluorobenzyl) pyrrolidine-2-carboxamide]",4.06,,,,,,
89916 ± 4999,24633 ± 167,7.81 ± 1.16,13180 ± 3323,1967 ± 568,12.5,"C[C@H](NC(=O)[C@H]1C[C@H](Cc2cccc(Cl)c2)CN1)C(=O)NC1CCc2nc(N)ccc21 (stereo partly drawn) [Compound L014, (2R,4S)—N-((2S)-1-((2-amino-6,7-dihydro-5H-cyclopenta[b]pyridin-5-yl)amino)-1-oxopropan-2-yl)-4-(3-chlorobenzyl) pyrrolidine-2-carboxamide]",2.71,,,,,,
16723 ± 860,27167 ± 1299,2.13 ± 0.25,3638 ± 335,1373 ± 162,2.21 ± 0.27,"C[C@H](NC(=O)[C@H]1CC(C(F)(F)c2ccc(F)cc2)CN1)C(=O)N[C@@H]1CCc2nc(N)ccc21 (stereo partly drawn) [Compound L050, (2R)—N—((S)-1-(((R)-2-amino-6,7-dihydro-5H-cyclopenta[b]pyridin-5-yl)amino)-1-oxopropan-2-yl)-4-(difluoro (4-fluorophenyl)methyl) pyrrolidine-2-carboxamide]",2.64,,,,,,
,,,,,,"C[C@H](NC(=O)[C@H]1C=C(c2ccccc2F)CCN1)C(=O)N[C@@H]1CCc2nc(N)ccc21 [Compound L082, (R)—N—((S)-1-(((R)-2-amino-6,7-dihydro-5H-cyclopenta[b]pyridin-5-yl)amino)-1-oxopropan-2-yl)-4-(2-fluorophenyl)-1,2,5,6-tetrahydropyridine-2-carboxamide]",8.85,24700 ± 1030,3.21 ± 0.19,18600 ± 1960,6110 ± 1210,2.85 ± 0.05,1430 ± 283
,,,,,,"C[C@H](NC(=O)[C@H]1C=C(c2cccc(F)c2)CCN1)C(=O)N[C@@H]1CCc2nc(N)ccc21 [Compound L083, (R)—N—((S)-1-(((R)-2-amino-6,7-dihydro-5H-cyclopenta[b]pyridin-5-yl)amino)-1-oxopropan-2-yl)-4-(3-fluorophenyl)-1,2,5,6-tetrahydropyridine-2-carboxamide]",10.6,16400 ± 936,2.71 ± 0.23,18000 ± 850,3360 ± 778,2.97 ± 0.07,1090 ± 295

Structure (SMILES),"AUClast ([2]; IV, not fasting) [ng·h/mL]","Cmax ([2]; IV, not fasting) [ng/mL]","T1/2 ([2]; IV, not fasting) [h]","AUClast ([2]; PO, fasting) [ng·h/mL]","Cmax ([2]; PO, fasting) [ng/mL]","T1/2 ([2]; PO, fasting) [h]",IC50 [1] [nM],"AUC(0-t) [2, 3] [ng·h/mL]","half-life [2, 3] [h]","Cmax [2, 4] [ng/mL]","AUC(0-t) [2, 5] [ng·h/mL]","half-life [2, 5] [h]","Cmax [2, 6] [ng/mL]"
"C[C@H](NC(=O)[C@H]1C[C@H](Cc2ccc(Cl)cc2)CN1)C(=O)NC1CCc2nc(N)ccc21 (stereo partly drawn) [Compound L003, (2R,4S)—N-((2S)-1-((2-amino-6,7-dihydro-5H-cyclopenta[b]pyridin-5-yl)amino)-1-oxopropan-2-yl)-4-(4-chlorobenzyl) pyrrolidine-2-carboxamide]",95060 ± 770,25400 ± 1940,5.84 ± 0.55,11167 ± 1986,1777 ± 394,5.89,5.17,,,,,,

# From patent US20250171414A1, “COMPOUND SERVING AS MASP-2 INHIBITOR, PHARMACEUTICAL COMPOSITION, PREPARATION METHOD THEREFOR, AND USE THEREOF” (WUHAN CREATERNA SCIENCE AND TECHNOLOGY CO., LTD., priority 2022, published 2025)
